Laboratory results published in EP4603105A1, “PHARMACEUTICAL COMPOSITION CONTAINING CYCLIC COMPOUND HAVING SELECTIVE KRAS INHIBITORY EFFECT AGAINST HRAS AND NRAS” (CHUGAI SEIYAKU KABUSHIKI KAISHA, priority 2022, dated 2024).

Key:
HRAS wild-type protein = HRAS wild-type protein (Homo sapiens, UniProt P01112); assay: Binding to HRAS by surface plasmon resonance (SPR), KD and KD ratio to KRAS
How it was run: (§1)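 Single-cycle kinetics on GDP-loaded biotin-Avi RAS captured to ~100–300 RU; 75 s ascending injections, 100 µL/min, 30°C. HBS pH 7.4 + 10 mM MgCl2/10 µM GDP/4% DMSO. 1:1 fit, KD.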

[1] = target: GDP-bound NRAS wild-type protein (Homo sapiens, UniProt P01111); assay: Binding to NRAS by surface plasmon resonance (SPR), KD and KD ratio to KRAS
How it was run: as §1

[2] = test system: human lung cancer strain NCI-H441; format: cell-based
How it was run: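 Proliferation was scored by […] measured after the reagent was added to cultures kept at 37°C in 5% carbon dioxide.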

[3] = ratio of KD for HRAS wild-type protein to KD for KRAS
[4] = ratio of KD for GDP-bound NRAS wild-type protein to KD for KRAS
[5] = ratio of the KD value with respect to HRAS wild-type protein to the KD value with respect to KRAS
[6] = ratio of the KD value with respect to GDP-bound NRAS wild-type protein to the KD value with respect to KRAS

GDP-bound NRAS wild-type protein, sequence (P01111 whole entry): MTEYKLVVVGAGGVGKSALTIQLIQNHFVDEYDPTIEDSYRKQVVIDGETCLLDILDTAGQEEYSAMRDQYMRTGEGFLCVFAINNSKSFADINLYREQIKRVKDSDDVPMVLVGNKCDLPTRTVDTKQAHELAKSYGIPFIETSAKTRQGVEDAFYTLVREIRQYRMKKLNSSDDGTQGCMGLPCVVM
HRAS wild-type protein, sequence (P01112 whole entry): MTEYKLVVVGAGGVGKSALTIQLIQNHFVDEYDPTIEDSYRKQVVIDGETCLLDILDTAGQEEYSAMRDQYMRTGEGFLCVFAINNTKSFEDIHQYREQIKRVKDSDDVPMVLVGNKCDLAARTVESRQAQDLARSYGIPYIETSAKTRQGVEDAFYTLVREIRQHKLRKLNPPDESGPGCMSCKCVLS

Row | IC50 [2] [nM] | Compound | HRAS /KRAS (HRAS wild-type protein; [3]) | NRAS /KRAS [1, 4] | HRAS /KRAS (HRAS wild-type protein; [5]) | NRAS /KRAS [1, 6] | HRAS /KRAS (HRAS wild-type protein; ratio of KD with respect to HRAS wild-type protein to KD with respect to KRAS) | NRAS /KRAS ([1]; ratio of KD with respect to GDP-bound NRAS wild-type protein to KD with respect to KRAS)
1 | 174 | CCO[C@@H]1C[C@H]2C(=O)NC3(CC=CC3)C(=O)N(C)[C@@H](C3CCCC3)C(=O)N(C)[C@H](C(=O)N3CCOCC3)CC(=O)N(C)[C@@H](COC)C(=O)N[C@@H]([C@@H](C)CC)C(=O)N(C)CC(=O)N(C)[C@H]3CCCCCN(C3=O)[C@@H](Cc3ccc(C(F)(F)F)cc3)C(=O)N(C)CC(=O)N[C@@H](CCc3cc(F)c(C(F)(F)F)c(F)c3)C(=O)N2C1 [PP0842] | B (a compound having 3 or more and less than 10 is denoted as B) | B (a compound having 3 or more and less than 10 is denoted as B) |  |  |  | 
2 | 6.9 | CCOC[C@H]1C(=O)N[C@@H]([C@@H](C)CC)C(=O)N(C)CC(=O)N(C)[C@H]2C/C=C\CCN(C2=O)[C@@H](Cc2ccc(C(F)(F)F)cc2)C(=O)N(C)CC(=O)N[C@@H](CCc2ccc(C(F)(F)F)c(OC)c2)C(=O)N2C[C@H](OCC)C[C@H]2C(=O)NC2(CC(C)(C)C2)C(=O)N(C)[C@@H](C2CCCC2)C(=O)N(C)[C@H](C(=O)N(C)CC)CC(=O)N1C [PP2014] |  |  | A (a compound having 10 or more and less than 20 is denoted as A) | A (a compound having 10 or more and less than 20 is denoted as A) |  | 
3 | 50.1 | CCC[C@H]1C(=O)N[C@@H]([C@@H](C)CC)C(=O)N(C)CC(=O)N(C)[C@H]2C/C=C\CCN(C2=O)[C@@H](Cc2ccc(C(F)(F)F)cc2)C(=O)N(C)CC(=O)N[C@@H](CCc2ccc(C(F)(F)F)c(Cl)c2)C(=O)N2CCCCC[C@H]2C(=O)NC2(CC(C)(C)C2)C(=O)N(C)[C@@H](C(CC)CC)C(=O)N(C)[C@H](C(=O)N(C)C)CC(=O)N1C [PP2964] | A (a compound having 10 or more and less than 20 is denoted as A) | AA (a compound having 20 or more is denoted as AA) |  |  |  | 
4 | 4.1 | CCO[C@@H]1C[C@H]2C(=O)NC3(CC(C)(C)C3)C(=O)N(C)[C@@H](C(CC)CC)C(=O)N(C)[C@H](C(=O)N(C)C)CC(=O)N(C)[C@H]3CCC/C=C/c4ccc(cc4)C[C@@H](C(=O)N(C)CC(=O)N[C@@H](CCc4cc(F)c(C(F)(F)F)c(F)c4)C(=O)N2C1)N1CC/C=C\C[C@@H](C1=O)N(C)C(=O)CN(C)C(=O)[C@H]([C@@H](C)CC)NC3=O [PP2575] | A (a compound having 10 or more and less than 20 is denoted as A) | A (a compound having 10 or more and less than 20 is denoted as A) |  |  |  | 
5 | 7.9 | CCC[C@H]1C(=O)N[C@@H]([C@@H](C)CC)C(=O)N(C)CC(=O)N(C)[C@H]2C/C=C\CCN(C2=O)[C@@H](Cc2ccc(C(F)(F)F)cc2)C(=O)N(C)CC(=O)N[C@@H](CCc2ccc(C(F)(F)F)c(Cl)c2)C(=O)N2C[C@H](OCC)C[C@H]2C(=O)NC2(CC(C)(C)C2)C(=O)N(C)[C@@H]([C@@H](C)CC)C(=O)N(C)[C@H](C(=O)N(C)C)CC(=O)N1C [PP2973] | A (a compound having 10 or more and less than 20 is denoted as A) | A (a compound having 10 or more and less than 20 is denoted as A) |  |  |  | 
6 | 50.5 | CCC[C@H]1C(=O)N[C@@H]([C@@H](C)CC)C(=O)N(C)CC(=O)N(C)[C@H]2C/C=C\CCN(C2=O)[C@@H](Cc2ccc(C(F)(F)F)cc2)C(=O)N(C)CC(=O)N[C@@H](CCc2ccc(C(F)(F)F)c(OC)c2)C(=O)N2CCOC[C@H]2C(=O)NC2(CC(C)(C)C2)C(=O)N(C)[C@@H](C(CC)CC)C(=O)N(C)[C@H](C(=O)N(C)C)CC(=O)N1C [PP2935] | A (a compound having 10 or more and less than 20 is denoted as A) | A (a compound having 10 or more and less than 20 is denoted as A) |  |  |  | 
7 | 9.2 | CCO[C@@H]1C[C@H]2C(=O)NC3(CCC3)C(=O)N(C)[C@@H](C3CCCC3)C(=O)N(C)[C@H](C(=O)N(C)CC)CC(=O)N(C)[C@@H](C)C(=O)N[C@@H]([C@@H](C)CC)C(=O)N(C)CC(=O)N(C)[C@H]3C/C=C\CCN(C3=O)[C@@H](Cc3ccc(C(F)(F)F)cc3)C(=O)N(C)CC(=O)N[C@@H](CCc3cc(F)c(C(F)(F)F)c(F)c3)C(=O)N2C1 [PP1302] |  |  |  |  | A (a compound having 10 or more and less than 20 is denoted as A) | A (a compound having 10 or more and less than 20 is denoted as A)
8 | 13.1 | CCC[C@H]1C(=O)N[C@@H]([C@@H](C)CC)C(=O)N(C)CC(=O)N(C)[C@H]2C/C=C\CCN(C2=O)[C@@H](Cc2ccc(C(F)(F)F)cc2)C(=O)N(C)CC(=O)N[C@@H](CCc2ccc(Cl)c(Cl)c2)C(=O)N2C[C@H](OCC)C[C@H]2C(=O)NC2(CC(C)(C)C2)C(=O)N(C)[C@@H](C2CCCC2)C(=O)N(C)[C@H](C(=O)N(C)C)CC(=O)N1C [PP1932] |  |  | A (a compound having 10 or more and less than 20 is denoted as A) | A (a compound having 10 or more and less than 20 is denoted as A) |  | 
9 | 332 | CCO[C@@H]1C[C@H]2C(=O)N[C@@]3(C)CCCCCCC[C@@H](C(=O)N[C@@H]([C@@H](C)CC)C(=O)N(C)CC(=O)N(C)[C@H]4CCCCN(C4=O)[C@@H](Cc4ccc(C(F)(F)F)cc4)C(=O)N(C)CC(=O)N[C@@H](CCc4cc(F)c(C(F)(F)F)c(F)c4)C(=O)N2C1)N(C)C(=O)C[C@@H](C(=O)N1CCOCC1)N(C)C(=O)[C@H](C1CCCC1)N(C)C3=O [PP0993] | B (a compound having 3 or more and less than 10 is denoted as B) | B (a compound having 3 or more and less than 10 is denoted as B) |  |  |  | 
10 | 260 | CC[C@H](C)[C@@H]1NC(=O)[C@H](C)N(C)C(=O)C[C@@H](C(=O)N2CCOCC2)N(C)C(=O)[C@H](C2CCCC2)N(C)C(=O)C2(CCCC2)NC(=O)[C@@H]2CCCN2C(=O)[C@H](CCc2cc(F)c(C(F)(F)F)c(F)c2)NC(=O)CN(C)C(=O)[C@H](Cc2ccc(C(F)(F)F)cc2)N2CCCCC[C@@H](C2=O)N(C)C(=O)CN(C)C1=O [PP0487] |  |  | B (a compound having 3 or more and less than 10 is denoted as B) | B (a compound having 3 or more and less than 10 is denoted as B) |  | 
11 | 5.3 | CCO[C@@H]1C[C@H]2C(=O)NC3(CCCC3)C(=O)N(C)[C@@H](C3CCCC3)C(=O)N(C)[C@H](C(=O)N(C)C)CC(=O)N(C)[C@@H](C)C(=O)N[C@@H]([C@@H](C)CC)C(=O)N(C)CC(=O)N(C)[C@H]3CCCCN(C3=O)[C@@H](Cc3ccc(C(F)(F)F)cc3)C(=O)N(C)CC(=O)N[C@@H](CCc3cc(F)c(C(F)(F)F)c(F)c3)C(=O)N2C1 [PP0586] |  |  | B (a compound having 3 or more and less than 10 is denoted as B) | C (A compound having a KD ratio of 0.1 or more and less than 3 is denoted as C) |  | 

Row | Compound | IC50 [2] [nM] | HRAS /KRAS (HRAS wild-type protein; [3]) | NRAS /KRAS [1, 4] | HRAS /KRAS (HRAS wild-type protein; [5]) | NRAS /KRAS [1, 6] | HRAS /KRAS (HRAS wild-type protein; ratio of KD with respect to HRAS wild-type protein to KD with respect to KRAS) | NRAS /KRAS ([1]; ratio of KD with respect to GDP-bound NRAS wild-type protein to KD with respect to KRAS)
12 | CCC[C@H]1C(=O)N[C@@H]([C@@H](C)CC)C(=O)N(C2CC2)CC(=O)N(C)[C@H]2C/C=C\CCN(C2=O)[C@@H](Cc2ccc(C(F)(F)F)cc2)C(=O)N(C)CC(=O)N[C@@H](CCc2ccc(C(F)(F)F)c(OC)c2)C(=O)N2C[C@H](OCC)C[C@H]2C(=O)N(C)C2(CCC2)C(=O)N(C)[C@@H](C2CCCC2)C(=O)N(C)[C@H](C(=O)N2CCCCC2)CC(=O)N1C [PP3095] | 33.7 | A (a compound having 10 or more and less than 20 is denoted as A) | A (a compound having 10 or more and less than 20 is denoted as A) |  |  |  | 
